These results are taken from US11718618B2, “Substituted pyrido[2,1-a]isoquinolines as VMAT2 inhibitors” (priority 2021, dated 2023).

Structures are written as SMILES.

The target in one series is human VMAT2 (Homo sapiens (Human), UniProt Q05940). As to the kind of experiment: VMAT2 radioligand binding, 3H-dihydrotetrabenazine competition on human platelet homogenate. The note with it: 10 nM 3H-dihydrotetrabenazine, human platelet homogenate, 25° C., 90 minutes; read-out: VMAT2 Ki. Put shortly: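 Human platelet homogenate (30 μg membrane protein/well) in DPBS with 1 mM EDTA, pH 7.4; twelve test-compound concentrations competed against 10 nM ³H-dihydrotetrabenazine. Incubated 90 min at 25 °C, bound radioligand collected by filtration on PEI-pretreated glass-fibre filters and counted by scintillation; Ki derived.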

Series [1] is described as follows: Stability of compounds in human liver microsomes. The note with it: for CLint scaled at 0.5 μM / half-life at 0.5 μM: both sexes, pH 7.4; for CLint scaled at 0.5 μM: liver microsomes, calculated from HLM half-life, read-out: HLM Scaled Intrinsic Clearance; for CLint scaled at 0.5 μM / Predicted Max. Bioavailability (% F) / HLM Predicted Systemic Clearance: human; for half-life at 0.5 μM: 0.5 μM compound, 0.5 mg/mL human liver microsomes, 37° C., maxed at 420 minutes, read-out: HLM Elimination half-life (t1/2, min); for Predicted Max. Bioavailability (% F): predicted from HLM data; for HLM Predicted Systemic Clearance: scaled from HLM half-life (Obach method). It is filed as in vitro ADME. In outline:
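Compound at 0.5 μM incubated at 37 °C with pooled mixed-gender human liver microsomes (0.5 mg/mL protein) and an NADPH-generating system in pH 7.4 phosphate buffer, sampled 0–60 min. Parent depletion tracked by LC-MS/MS; t1/2 derived from the slope by non-linear regression, with predicted extraction ratio and maximum bioavailability also calculated.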

Chain of human VMAT2 (Q05940 whole entry): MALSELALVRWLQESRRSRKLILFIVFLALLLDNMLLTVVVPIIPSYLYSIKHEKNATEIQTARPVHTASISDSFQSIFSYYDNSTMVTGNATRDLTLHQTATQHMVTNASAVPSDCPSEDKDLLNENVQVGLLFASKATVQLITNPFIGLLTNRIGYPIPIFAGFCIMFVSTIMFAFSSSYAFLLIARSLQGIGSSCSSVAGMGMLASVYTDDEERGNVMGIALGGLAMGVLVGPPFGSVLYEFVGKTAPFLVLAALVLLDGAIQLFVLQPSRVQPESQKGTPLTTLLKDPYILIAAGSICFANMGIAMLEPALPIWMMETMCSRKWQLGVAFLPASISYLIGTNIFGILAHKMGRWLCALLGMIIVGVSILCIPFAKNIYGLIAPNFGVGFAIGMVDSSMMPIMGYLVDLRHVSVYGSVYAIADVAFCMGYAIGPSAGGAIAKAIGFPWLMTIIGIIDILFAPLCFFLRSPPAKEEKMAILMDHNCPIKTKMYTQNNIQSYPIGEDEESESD

Take `COc1cc2c(cc1OC(C)C)CCN1C[C@@H](CC(C)(C)C)[C@H](O)C[C@H]21` [Compound 4-38, (2R,3R,11bR)-3-(2,2-dimethylpropyl)-10-methoxy-9-(propan-2-yloxy)-1H,2H,3H,4H,6H,7H,11bH-pyrido[2,1-a]isoquinolin-2-ol]: at human VMAT2, the inhibition constant (Ki) – broadly, a dissociation constant, usually derived from enzyme kinetics or from competition with a known ligand – was 3.7 nM. Besides, in series [1], the CLint scaled at 0.5 μM is 21.5 mL/min/kg, the half-life at 0.5 μM came out at 58 min, the “Predicted Max. Bioavailability (% F)” value is reported as 48 % F and the “HLM Predicted Systemic Clearance” value is 10.35 mL/min/kg.
Take `COc1cc2c(cc1OC)[C@H]1C[C@H](O)[C@H](CC(C)(C)C)CN1CC2` [Compound 5-2, (2S,3R,11bR)-3-(2,2-dimethylpropyl)-9,10-dimethoxy-1H,2H,3H,4H,6H,7H,11bH-pyrido[2,1-a]isoquinolin-2-ol]: on human VMAT2, the Ki is 50 nM. For the same molecule, in series [1], the CLint scaled at 0.5 μM is 32.6 mL/min/kg, the half-life at 0.5 μM was found to be 38 min, the “Predicted Max. Bioavailability (% F)” value is on record as 38 % F and the “HLM Predicted Systemic Clearance” value was 12.39 mL/min/kg.
In the case of `COc1cc2c(cc1OCC1CCN(C#N)CC1)CCN1C[C@@H](CC(C)(C)C)[C@H](O)C[C@H]21` [Compound 4-73], at human VMAT2, the Ki came out at 51 nM. Also, in series [1], the CLint scaled at 0.5 μM was 10.5 mL/min/kg, the half-life at 0.5 μM was 119 min, the “Predicted Max. Bioavailability (% F)” value was 66 % F and the “HLM Predicted Systemic Clearance” value is 6.88 mL/min/kg.
On to `COc1cc2c(cc1OC1COC1)CCN1C[C@@H](CC(C)(C)C)[C@H](O)C[C@H]21` [Compound 4-30, (2R,3R,11bR)-3-(2,2-dimethylpropyl)-10-methoxy-9-(oxetan-3-yloxy)-1H,2H,3H,4H,6H,7H,11bH-pyrido[2,1-a]isoquinolin-2-ol], for which the Ki on human VMAT2 came out at 12 nM. Besides, in series [1], the CLint scaled at 0.5 μM is at most 2.97 mL/min/kg, the half-life at 0.5 μM is at least 420 min, the “Predicted Max. Bioavailability (% F)” value is reported as at least 87 % F and the “HLM Predicted Systemic Clearance” value was at most 2.59 mL/min/kg.
Take `COc1cc2c(cc1OC[C@H](C)O)CCN1C[C@@H](CC(C)(C)C)[C@H](O)C[C@H]21` [Compound 4-114, (2R,3R,11bR)-3-(2,2-dimethylpropyl)-9-[(2S)-2-hydroxypropoxy]-10-methoxy-1H,2H,3H,4H,6H,7H,11bH-pyrido[2,1-a]isoquinolin-2-ol]: the inhibition constant (Ki) on human VMAT2 was 70 nM. In series [1], the CLint scaled at 0.5 μM is at most 2.97 mL/min/kg, the half-life at 0.5 μM is at least 420 min, the “Predicted Max. Bioavailability (% F)” value is at least 87 % F and the “HLM Predicted Systemic Clearance” value is at most 2.59 mL/min/kg.
Regarding `COc1cc2c(cc1OCc1ccc(C#N)o1)CCN1C[C@@H](CC(C)(C)C)[C@H](O)C[C@H]21` [Compound 4-59, 5-({[(2R,3R,11bR)-3-(2,2-dimethylpropyl)-2-hydroxy-10-methoxy-1H,2H,3H,4H,6H,7H,11bH-pyrido[2,1-a]isoquinolin-9-yl]oxy}methyl)furan-2-carbonitrile], the inhibition constant Ki at human VMAT2 turned out to be 1.5 nM. Also, in series [1], the CLint scaled at 0.5 μM was 24.8 mL/min/kg, the half-life at 0.5 μM was found to be 50 min, the “Predicted Max. Bioavailability (% F)” value was 45 % F and the “HLM Predicted Systemic Clearance” value was 11.08 mL/min/kg.
In the case of `COc1cc2c(cc1OCCOC1(C#N)CCC1)CCN1C[C@@H](CC(C)(C)C)[C@H](O)C[C@H]21` [Compound 4-23, 1-(2-{[(2R,3R,11bR)-3-(2,2-dimethylpropyl)-2-hydroxy-10-methoxy-1H,2H,3H,4H,6H,7H,11bH-pyrido[2,1-a]isoquinolin-9-yl]oxy}ethoxy)cyclobutane-1-carbonitrile], on human VMAT2, the inhibition constant (Ki) was 0.41 nM. Moreover, in series [1], the CLint scaled at 0.5 μM was 58.5 mL/min/kg, the half-life at 0.5 μM stood at 21 min, the “Predicted Max. Bioavailability (% F)” value is reported as 25 % F and the “HLM Predicted Systemic Clearance” value was 14.9 mL/min/kg.
As to `COc1cc2c(cc1OCC1(C#N)CC1)CCN1C[C@@H](CC(C)(C)C)[C@H](O)C[C@H]21` [Compound 4-29, 1-({[(2R,3R,11bR)-3-(2,2-dimethylpropyl)-2-hydroxy-10-methoxy-1H,2H,3H,4H,6H,7H,11bH-pyrido[2,1-a]isoquinolin-9-yl]oxy}methyl)cyclopropane-1-carbonitrile], on human VMAT2, the Ki turned out to be 83 nM. Further, in series [1], the CLint scaled at 0.5 μM was at most 2.97 mL/min/kg, the half-life at 0.5 μM is at least 420 min, the “Predicted Max. Bioavailability (% F)” value is recorded as at least 87 % F and the “HLM Predicted Systemic Clearance” value was at most 2.59 mL/min/kg.
As for `COc1cc2c(cc1OCCF)CCN1C[C@@H](CC(C)(C)C)[C@H](O)C[C@H]21` [Compound 4-18, (2R,3R,11bR)-3-(2,2-dimethylpropyl)-9-(2-fluoroethoxy)-10-methoxy-1H,2H,3H,4H,6H,7H,11bH-pyrido[2,1-a]isoquinolin-2-ol], the Ki on human VMAT2 came out at 5.5 nM. In series [1], the CLint scaled at 0.5 μM is 8.05 mL/min/kg, the half-life at 0.5 μM was 155 min, the “Predicted Max. Bioavailability (% F)” value is 71 % F and the “HLM Predicted Systemic Clearance” value is 5.74 mL/min/kg.
Consider `COc1cc2c(cc1O[C@H]1CCOC1)CCN1C[C@@H](CC(C)(C)C)[C@H](O)C[C@H]21` [Compound 4-54, (2R,3R,11bR)-3-(2,2-dimethylpropyl)-10-methoxy-9-[(3S)-oxolan-3-yloxy]-1H,2H,3H,4H,6H,7H,11bH-pyrido[2,1-a]isoquinolin-2-ol], for which the Ki on human VMAT2 worked out at 12 nM. Further, in series [1], the CLint scaled at 0.5 μM was 7.59 mL/min/kg, the half-life at 0.5 μM amounted to 164 min, the “Predicted Max. Bioavailability (% F)” value was 73 % F and the “HLM Predicted Systemic Clearance” value is 5.5 mL/min/kg.
The corresponding values for `COc1cc2c(cc1OCC1(F)COC1)CCN1C[C@@H](CC(C)(C)C)[C@H](O)C[C@H]21` [Compound 4-19, (2R,3R,11bR)-3-(2,2-dimethylpropyl)-9-[(3-fluorooxetan-3-yl)methoxy]-10-methoxy-1H,2H,3H,4H,6H,7H,11bH-pyrido[2,1-a]isoquinolin-2-ol] are 8.1 nM, 14.2 mL/min/kg, 88 min, 59 % F and 8.3 mL/min/kg.
In the case of `COc1cc2c(cc1OCC#N)CCN1C[C@@H](CC(C)(C)C)[C@H](O)C[C@H]21` [Compound 4-24, 2-{[(2R,3R,11bR)-3-(2,2-dimethylpropyl)-2-hydroxy-10-methoxy-1H,2H,3H,4H,6H,7H,11bH-pyrido[2,1-a]isoquinolin-9-yl]oxy}acetonitrile], the Ki at human VMAT2 was 35 nM. In addition, in series [1], the CLint scaled at 0.5 μM was 10.7 mL/min/kg, the half-life at 0.5 μM was 117 min, the “Predicted Max. Bioavailability (% F)” value is 65 % F and the “HLM Predicted Systemic Clearance” value was 6.97 mL/min/kg.
`COc1cc2c(cc1OCC(F)F)CCN1C[C@@H](CC(C)(C)C)[C@@H](O)C[C@H]21` [Compound 4-10, (2S,3R,11bR)-9-(2,2-difluoroethoxy)-3-(2,2-dimethylpropyl)-10-methoxy-1H,2H,3H,4H,6H,7H,11bH-pyrido[2,1-a]isoquinolin-2-ol]: the inhibition constant Ki on human VMAT2 worked out at 15 nM. In series [1], the CLint scaled at 0.5 μM is 3.65 mL/min/kg, the half-life at 0.5 μM worked out at 342 min, the “Predicted Max. Bioavailability (% F)” value is recorded as 85 % F and the “HLM Predicted Systemic Clearance” value was 3.09 mL/min/kg.
Consider `COc1cc2c(cc1OCC(O)C(F)F)CCN1C[C@@H](CC(C)(C)C)[C@H](O)C[C@H]21` (stereo partly drawn) [Compound 4-51, (2R,3R,11bR)-9-(3,3-difluoro-2-hydroxypropoxy)-3-(2,2-dimethylpropyl)-10-methoxy-1H,2H,3H,4H,6H,7H,11bH-pyrido[2,1-a]isoquinolin-2-ol], for which the Ki at human VMAT2 came out at 9.4 nM. For the same molecule, in series [1], the CLint scaled at 0.5 μM is at most 2.97 mL/min/kg, the half-life at 0.5 μM was at least 420 min, the “Predicted Max. Bioavailability (% F)” value was at least 87 % F and the “HLM Predicted Systemic Clearance” value was at most 2.59 mL/min/kg.
On to `COc1cc2c(cc1O[C@@H]1CCOC1)CCN1C[C@@H](CC(C)(C)C)[C@H](O)C[C@H]21` [Compound 4-53, (2R,3R1bR)-3-(2,2-dimethylpropyl)-10-methoxy-9-[(3R)-oxolan-3-yloxy]-1H,2H,3H,4H,6H,7H,11bH-pyrido[2,1-a]isoquinolin-2-ol], for which the Ki on human VMAT2 came to 12 nM. Also, in series [1], the CLint scaled at 0.5 μM was 8.57 mL/min/kg, the half-life at 0.5 μM was found to be 146 min, the “Predicted Max. Bioavailability (% F)” value is given as 70 % F and the “HLM Predicted Systemic Clearance” value is 6 mL/min/kg.
As for `COc1cc2c(cc1OCCN1CCC(F)(F)C1)CCN1C[C@@H](CC(C)(C)C)[C@H](O)C[C@H]21` [Compound 4-71, (2R,3R,11bR)-9-[2-(3,3-difluoropyrrolidin-1-yl)ethoxy]-3-(2,2-dimethylpropyl)-10-methoxy-1H,2H,3H,4H,6H,7H,11bH-pyrido[2,1-a]isoquinolin-2-ol], the inhibition constant Ki at human VMAT2 was determined as 37 nM. Further, in series [1], the CLint scaled at 0.5 μM is 38.4 mL/min/kg, the half-life at 0.5 μM stood at 33 min, the “Predicted Max. Bioavailability (% F)” value was 34 % F and the “HLM Predicted Systemic Clearance” value was 13.15 mL/min/kg.
With `COc1cc2c(cc1OCc1cccc(C#N)n1)CCN1C[C@@H](CC(C)(C)C)[C@H](O)C[C@H]21` [Compound 4-77, 6-({[(2R,3R,11bR)-3-(2,2-dimethylpropyl)-2-hydroxy-10-methoxy-1H,2H,3H,4H,6H,7H,11bH-pyrido[2,1-a]isoquinolin-9-yl]oxy}methyl)pyridine-2-carbonitrile], on human VMAT2, the Ki turned out to be 85 nM. Besides, in series [1], the CLint scaled at 0.5 μM was 8.01 mL/min/kg, the half-life at 0.5 μM worked out at 156 min, the “Predicted Max. Bioavailability (% F)” value was 71 % F and the “HLM Predicted Systemic Clearance” value is 5.72 mL/min/kg.
